Assay results from patent EP0618917B1, “1'-AMINO-2- (BENZOTHIAZOLYL)METHYL]SPIRO ISOQUINOLINE-4(1H),3'-PYRROLIDINE]-1,2',3,5'(2H)-TETRONES AND ANALOGS THEREOF USEFUL AS ALDOSE REDUCTASE INHIBITORS” (AMERICAN HOME PRODUCTS CORPORATION, priority 1991, dated 1993).

System: aldose reductase
Test: Galactitol (dulcitol) accumulation in galactosemic rats, in vivo
Conditions: percentage decrease of dulcitol accumulation vs untreated galactose-fed rats, four days; for % Lowering Galactitol Accumulation In Vivo %(D): diaphragm; for % Lowering Galactitol Accumulation In Vivo %(L): lens
Text: The aldose reductase inhibiting property of the compounds of this invention and the utilization of the compounds in preventing, diminishing and alleviating diabetic complications are demonstrable in experiments using galactosemic rats, see Dvornik et al., Science, 182, 1146 (1973). Such experiments are exemplified hereinbelow after the listing of the following general comments pertaining to these experiments: • (a) Four or more groups of six male rats, 50-70 g, Sprague-Dawley strain, were used. The first group, the control group, was fed a mixture of laboratory chow (rodent Laboratory Chow, Purina) and glucose at 20% (w/w %) concentration. An untreated galactosemic group was fed a similar diet in which galactose was substituted for glucose. The third group was fed a diet prepared by mixing a given amount of the test compound with the galactose containing diet The concentration of galactose in the diet of the treated groups was the same as that for the untreated galactosemic group. • (b) After four days, the animals were killed by euthanization. Both the lens and sciatic nerve were removed, weighed and stored frozen for polyol determination. • (c) The polyol determination was performed by a modification of the procedure of M. Kraml and L. Cosyns, Clin. Biochem., 2, 373 (1969). Only two minor reagent changes were made: (a) the rinsing mixture was an aqueous 5% (w/v) trichloroacetic acid solution and (b) the stock solution was prepared by dissolving 25 mg of dulcitol in 100 mL of an aqueous trichloroacetic acid solution. [N.B.: For each experiment the average value found in the tissue from rats fed the glucose diet was subtracted from the individual values found in the corresponding tissue in galactose-fed rats to obtain the amount of polyol accumulated.] The aldose reductase inhibiting effects of the compounds of formula (I) were also tested by employing an in vitro testing procedure similar to that described by S. Hayman and J.H. Kinoshita, J. Biol. Chem., 240, 877 (1965). In the present case the procedure of Hayman and Kinoshita was modified in that the final chromatography step was omitted in the preparation of the enzyme from bovine lens.
The figures under L, N, and D represent the percentage decrease of dulcitol accumulation in the tissues of the lens, sciatic nerve, and diaphragm, respectively for treated rats as compared to untreated rats.

SMILES	% Lowering Galactitol Accumulation In Vivo %(D) (Table 2, 50 mg/kg/day in diet)	% Lowering Galactitol Accumulation In Vivo %(L) (Table 2, 50 mg/kg/day in diet)	% Lowering Galactitol Accumulation In Vivo %(D) (dose 50 mg/kg/day in diet)	% Lowering Galactitol Accumulation In Vivo %(L) (dose 50 mg/kg/day in diet)
O=C1c2ccccc2C2(CC(=O)N(N=C3CCCC3)C2=O)C(=O)N1Cc1nc2cc(C(F)(F)F)ccc2s1 (stereo not drawn) [1'-(Cyclopentylideneamino)-2-[[5-(trifluoromethyl)-2-benzothiazolyl]methyl]spiro[isoquinoline-4(1H),3'pyrrolidine]-1,2',3,5'(2H)-tetrone]	95%	28%		
CC(C)=NN1C(=O)CC2(C(=O)N(Cc3nc4cc(C(F)(F)F)ccc4s3)C(=O)c3ccccc32)C1=O (stereo not drawn) [1'-[(1-Methylethylidene)amino]-2-[[5-(trifluoromethyl)-2-benzothiazolyl]methyl]spiro[isoquinoline]-1,2',3,5'(2H)-tetrone]	97%	37%		
O=C1c2ccccc2C2(CC(=O)N(N=C3CCOCC3)C2=O)C(=O)N1Cc1nc2cc(C(F)(F)F)ccc2s1 (stereo not drawn) [1'-[(Tetrahydro-4H-pyran-4-ylidene)amino]-2-[[5-(trifluoromethyl)-2-benzothiazolyl]methyl]spiro[isoquinoline-4(1H),3'-pyrrolidine]-1,2',3,5'(2H)-tetrone]	96%	41%		
NN1C(=O)CC2(C1=O)C(=O)N(Cc1nc3cc(C(F)(F)F)ccc3s1)C(=O)c1ccc(F)cc12 (stereo not drawn) [R^1=F, R^4=H, R^5=H]			97%	31%
CC(=O)NN1C(=O)CC2(C(=O)N(Cc3nc4cc(C(F)(F)F)ccc4s3)C(=O)c3ccccc32)C1=O (stereo not drawn) [R^1=H, R^4=H, R^5=COCH3, N-[2-[[5-(trifluoromethyl)-2-benzothiazolyl]methyl]-2,3-dihydro-1,2',3,5'-tetraoxospiro[isoquinoline-4(1H),3'-pyrrolidine]-1'-yl] acetamide]			97%	40%
NN1C(=O)CC2(C1=O)C(=O)N(Cc1nc3cc(C(F)(F)F)ccc3s1)C(=O)c1ccccc12 (stereo not drawn) [R^1=H, R^4=H, R^5=H, 1'-Amino-2-[[5-(trifluoromethyl)-2-benzothiazolyl]methyl]spiro[isoquinoline-4(1H),3'-pyrrolidine]-1,2',3,5'(2H)-tetrone]			96%	61%
